How the values were obtained:
Type in all cases: binding
AAK1A = AAK1A (Homo sapiens, UniProt Q2M2I8); test: DSF selectivity screening; settings: 10 μM compound
Method: (§1) The assay was performed as previously described.[29],[35] Briefly, recombinant protein kinase domains at a concentration of 2 μM were mixed with a 10 μM compound in a buffer containing 20 mM HEPES, pH 7.5, and 500 mM NaCl. SYPRO Orange (5000×, Invitrogen) was added as a fluorescence probe (1 μL per mL). Subsequently, temperature-dependent protein unfolding profiles were measured using a QuantStudio 5 real-time PCR machine (Thermo Fisher). Excitation and emission filters were set to 465 and 590 nm, respectively. The temperature was raised with a step rate of 3 °C per minute. Data points were analyzed with internal software (Thermal Shift Software version 1.4, Thermo Fisher) using the Boltzmann equation to determine the inflection point of the transition curve (Table S4).

CAMK4A = CAMK4A (Homo sapiens, UniProt Q16566); test: DSF selectivity screening; settings: 10 μM compound
Chain of CAMK4A (Q16566 whole entry): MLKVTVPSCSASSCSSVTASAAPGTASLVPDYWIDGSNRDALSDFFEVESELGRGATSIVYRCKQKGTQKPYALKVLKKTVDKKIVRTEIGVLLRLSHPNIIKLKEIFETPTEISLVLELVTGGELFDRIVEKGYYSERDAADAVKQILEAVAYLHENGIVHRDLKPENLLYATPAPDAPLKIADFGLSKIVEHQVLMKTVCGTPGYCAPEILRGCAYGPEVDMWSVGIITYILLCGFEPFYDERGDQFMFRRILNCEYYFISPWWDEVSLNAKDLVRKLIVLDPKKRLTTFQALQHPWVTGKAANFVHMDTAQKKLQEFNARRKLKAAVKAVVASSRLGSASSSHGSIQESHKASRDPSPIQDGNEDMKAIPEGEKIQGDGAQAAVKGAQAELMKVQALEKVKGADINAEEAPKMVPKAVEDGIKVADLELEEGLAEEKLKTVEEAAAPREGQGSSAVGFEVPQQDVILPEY
Method: as §1

CDK2A = CDK2A (Homo sapiens, UniProt P24941); test: DSF selectivity screening; settings: 10 μM compound
Method: as §1

DMPKA = DMPKA (Homo sapiens, UniProt Q09013); test: DSF selectivity screening; settings: 10 μM compound
Chain of DMPKA (Q09013 whole entry): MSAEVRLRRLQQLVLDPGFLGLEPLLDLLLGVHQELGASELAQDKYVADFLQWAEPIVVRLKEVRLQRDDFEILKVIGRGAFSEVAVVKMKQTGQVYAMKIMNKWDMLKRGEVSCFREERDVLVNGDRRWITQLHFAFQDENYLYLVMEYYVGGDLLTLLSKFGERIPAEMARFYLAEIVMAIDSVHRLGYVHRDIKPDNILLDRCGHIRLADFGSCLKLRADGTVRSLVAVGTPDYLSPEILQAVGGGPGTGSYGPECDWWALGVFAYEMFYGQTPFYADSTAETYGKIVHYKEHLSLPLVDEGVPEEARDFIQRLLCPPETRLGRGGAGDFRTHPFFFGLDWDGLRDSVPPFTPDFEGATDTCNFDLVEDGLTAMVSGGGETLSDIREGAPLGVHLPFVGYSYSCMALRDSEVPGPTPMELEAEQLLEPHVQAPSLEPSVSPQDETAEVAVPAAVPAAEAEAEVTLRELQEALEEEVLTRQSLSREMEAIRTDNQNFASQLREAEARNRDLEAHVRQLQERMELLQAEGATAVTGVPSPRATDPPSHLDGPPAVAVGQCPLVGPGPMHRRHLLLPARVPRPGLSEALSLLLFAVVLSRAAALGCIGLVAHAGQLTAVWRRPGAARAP
Method: as §1

DYRK1AA = DYRK1AA (Homo sapiens, UniProt Q13627); test: DSF selectivity screening; settings: 10 μM compound
Method: as §1

EPHA2A = EPHA2A (Homo sapiens, UniProt P29317); test: DSF selectivity screening; settings: 10 μM compound
Method: as §1

EPHA4A = EPHA4A (Homo sapiens, UniProt P54764); test: DSF selectivity screening; settings: 10 μM compound
Method: as §1

EPHB3A = EPHB3A (Homo sapiens, UniProt P54753); test: DSF selectivity screening; settings: 10 μM compound
Method: as §1

FECH = FECH (Homo sapiens, UniProt P22830); test: DSF selectivity screening; settings: 10 μM compound
Method: as §1

MAP3K5A = MAP3K5A (Homo sapiens, UniProt Q99683); test: DSF selectivity screening; settings: 10 μM compound
Chain of MAP3K5A (Q99683 659-951): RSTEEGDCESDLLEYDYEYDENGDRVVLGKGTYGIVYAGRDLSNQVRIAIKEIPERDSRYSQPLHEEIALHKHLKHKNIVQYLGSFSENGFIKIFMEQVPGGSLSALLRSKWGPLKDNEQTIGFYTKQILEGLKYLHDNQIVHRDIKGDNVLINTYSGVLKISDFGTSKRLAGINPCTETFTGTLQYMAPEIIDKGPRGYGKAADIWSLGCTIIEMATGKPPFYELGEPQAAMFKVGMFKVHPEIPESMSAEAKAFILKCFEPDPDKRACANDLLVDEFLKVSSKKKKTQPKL
Method: as §1

MST3A = MST3A (Homo sapiens, UniProt Q9Y6E0); test: DSF selectivity screening; settings: 10 μM compound
Chain of MST3A (Q9Y6E0 27-315): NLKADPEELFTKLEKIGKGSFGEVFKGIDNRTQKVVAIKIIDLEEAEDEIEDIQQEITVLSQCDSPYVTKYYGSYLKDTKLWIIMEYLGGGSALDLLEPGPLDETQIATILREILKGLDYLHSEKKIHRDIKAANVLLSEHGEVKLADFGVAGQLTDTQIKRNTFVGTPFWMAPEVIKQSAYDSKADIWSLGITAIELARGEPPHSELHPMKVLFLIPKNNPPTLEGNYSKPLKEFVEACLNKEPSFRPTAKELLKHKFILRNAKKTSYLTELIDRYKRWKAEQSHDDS
Method: as §1

MST4A = MST4A (Homo sapiens, UniProt Q9P289); test: DSF selectivity screening; settings: 10 μM compound
Method: as §1

NEK7A = NEK7A (Homo sapiens, UniProt Q8TDX7); test: DSF selectivity screening; settings: 10 μM compound
Chain of NEK7A (Q8TDX7 34-299): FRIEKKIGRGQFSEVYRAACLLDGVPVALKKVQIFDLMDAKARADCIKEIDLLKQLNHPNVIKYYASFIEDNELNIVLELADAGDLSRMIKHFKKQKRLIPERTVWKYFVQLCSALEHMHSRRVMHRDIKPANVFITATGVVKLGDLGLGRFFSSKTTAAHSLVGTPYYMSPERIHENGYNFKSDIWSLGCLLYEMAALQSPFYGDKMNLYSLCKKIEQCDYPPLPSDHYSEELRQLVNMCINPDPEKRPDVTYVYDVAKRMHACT
Method: as §1

NQO2A = NQO2A (Homo sapiens, UniProt P16083); test: DSF selectivity screening; settings: 10 μM compound
Chain of NQO2A (P16083 whole entry): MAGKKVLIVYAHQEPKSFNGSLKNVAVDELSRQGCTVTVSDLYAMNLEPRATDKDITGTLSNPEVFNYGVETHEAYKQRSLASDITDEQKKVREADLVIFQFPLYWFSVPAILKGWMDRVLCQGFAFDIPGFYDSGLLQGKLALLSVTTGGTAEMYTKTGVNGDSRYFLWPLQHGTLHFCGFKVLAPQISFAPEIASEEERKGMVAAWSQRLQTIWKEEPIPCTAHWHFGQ
Method: as §1

PCTK1A = PCTK1A (Homo sapiens, UniProt Q00536); test: DSF selectivity screening; settings: 10 μM compound
Method: as §1

PHKG2A = PHKG2A (Homo sapiens, UniProt P15735); test: DSF selectivity screening; settings: 10 μM compound
Chain of PHKG2A (P15735 6-293): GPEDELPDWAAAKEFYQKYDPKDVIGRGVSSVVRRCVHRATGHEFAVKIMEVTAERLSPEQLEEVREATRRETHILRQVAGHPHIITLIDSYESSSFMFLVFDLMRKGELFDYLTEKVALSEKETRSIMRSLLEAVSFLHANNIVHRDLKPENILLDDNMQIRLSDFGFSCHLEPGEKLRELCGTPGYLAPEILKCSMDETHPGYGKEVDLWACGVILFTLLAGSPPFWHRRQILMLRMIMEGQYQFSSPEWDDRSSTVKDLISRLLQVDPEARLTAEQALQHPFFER
Method: as §1

RIOK1A = RIOK1A (Homo sapiens, UniProt Q9BRS2); test: DSF selectivity screening; settings: 10 μM compound
Method: as §1

RPS6KA5A = test: DSF selectivity screening; settings: 10 μM compound
Method: as §1

STK17BA = STK17BA (Homo sapiens, UniProt O94768); test: DSF selectivity screening; settings: 10 μM compound
Method: as §1

STK39A = STK39A (Homo sapiens, UniProt Q9UEW8); test: DSF selectivity screening; settings: 10 μM compound
Method: as §1

VRK1A = VRK1A (Homo sapiens, UniProt Q99986); test: DSF selectivity screening; settings: 10 μM compound
Chain of VRK1A (Q99986 whole entry): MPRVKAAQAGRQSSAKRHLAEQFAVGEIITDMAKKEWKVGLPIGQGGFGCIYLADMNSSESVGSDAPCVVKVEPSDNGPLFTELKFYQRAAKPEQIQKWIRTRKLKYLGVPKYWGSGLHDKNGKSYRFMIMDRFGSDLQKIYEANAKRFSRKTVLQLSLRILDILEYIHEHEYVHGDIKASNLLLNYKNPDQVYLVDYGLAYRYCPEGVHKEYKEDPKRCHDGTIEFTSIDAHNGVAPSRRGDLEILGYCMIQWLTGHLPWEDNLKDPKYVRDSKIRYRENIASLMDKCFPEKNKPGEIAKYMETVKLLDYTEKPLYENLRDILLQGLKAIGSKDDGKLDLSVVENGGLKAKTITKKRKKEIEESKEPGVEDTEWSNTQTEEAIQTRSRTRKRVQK
Method: as §1

BRPF1A = BRPF1A (Homo sapiens, UniProt P55201); test: DSF selectivity screening; settings: 10 μM compound
[1] = biological target: ABL1(F317I)-nonphosphorylated (Homo sapiens, UniProt P00519, F317I); test: biochemical; settings: read-out: Percent Control
[2] = biological target: ABL1(Y253F)-phosphorylated (Homo sapiens, UniProt P00519, Y253F); test: biochemical; settings: read-out: Percent Control
EGFR(E746-A750del) = EGFR(E746-A750del) (Homo sapiens, UniProt P00533, DEL746-750); test: biochemical; settings: read-out: Percent Control
FLT3(D835Y) = FLT3(D835Y) (Homo sapiens, UniProt P36888, D835Y); test: biochemical; settings: 1000 nM, read-out: Percent Control
RET(M918T) = RET(M918T) (Homo sapiens, UniProt P07949, M918T); test: biochemical; settings: 1000 nM, read-out: Percent Control
EGFR(L747-T751del,Sins) = test system: EGFR(L747-T751del,Sins)
FLT3(ITD,F691L) = settings: 1000 nM
BRAF(V600E) = BRAF(V600E) (Homo sapiens, UniProt P15056, V600E); test: biochemical; settings: compound concentration 100 nM; Entrez BRAF; read-out: Percent Control
EGFR(L858R,T790M) = EGFR(L858R,T790M) (Homo sapiens, UniProt P00533, L858R/T790M); test: biochemical; settings: compound concentration 100 nM; Entrez EGFR; read-out: Percent Control
FGFR3(G697C) = FGFR3(G697C) (Homo sapiens, UniProt P22607, G697C); test: biochemical; settings: compound concentration 100 nM; Entrez FGFR3; read-out: Percent Control
KIT(V559D,T670I) = KIT(V559D,T670I) (Homo sapiens, UniProt P10721, T670I/V559D); test: biochemical; settings: compound concentration 100 nM; Entrez KIT; read-out: Percent Control
Chain of KIT(V559D,T670I) (P10721 26-976 V559D/T670I): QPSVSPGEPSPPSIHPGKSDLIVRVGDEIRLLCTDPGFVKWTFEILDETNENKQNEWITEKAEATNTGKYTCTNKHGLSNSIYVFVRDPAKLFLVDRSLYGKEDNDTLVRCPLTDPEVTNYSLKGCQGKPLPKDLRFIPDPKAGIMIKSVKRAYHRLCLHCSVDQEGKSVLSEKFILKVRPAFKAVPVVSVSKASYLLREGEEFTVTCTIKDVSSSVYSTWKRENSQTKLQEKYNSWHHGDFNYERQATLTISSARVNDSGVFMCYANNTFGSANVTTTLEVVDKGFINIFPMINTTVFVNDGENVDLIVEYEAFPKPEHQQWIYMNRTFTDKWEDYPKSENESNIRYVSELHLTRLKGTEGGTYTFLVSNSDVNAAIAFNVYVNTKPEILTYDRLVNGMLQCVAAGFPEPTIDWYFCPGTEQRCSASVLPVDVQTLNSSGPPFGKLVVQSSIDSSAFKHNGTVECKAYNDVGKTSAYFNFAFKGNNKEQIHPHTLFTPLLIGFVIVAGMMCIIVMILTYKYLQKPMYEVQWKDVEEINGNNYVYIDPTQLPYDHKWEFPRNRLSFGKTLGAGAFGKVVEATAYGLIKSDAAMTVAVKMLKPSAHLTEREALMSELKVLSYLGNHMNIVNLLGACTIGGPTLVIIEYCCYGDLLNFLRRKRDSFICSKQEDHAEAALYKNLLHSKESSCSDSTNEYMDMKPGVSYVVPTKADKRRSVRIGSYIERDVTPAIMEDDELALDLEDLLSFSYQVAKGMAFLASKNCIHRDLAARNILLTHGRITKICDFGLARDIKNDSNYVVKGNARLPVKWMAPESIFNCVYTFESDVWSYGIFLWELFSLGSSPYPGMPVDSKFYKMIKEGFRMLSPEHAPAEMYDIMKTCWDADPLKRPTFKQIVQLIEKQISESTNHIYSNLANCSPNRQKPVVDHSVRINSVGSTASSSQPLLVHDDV

PIK3CA(E545A) = PIK3CA(E545A) (Homo sapiens, UniProt P42336, E545A); test: biochemical; settings: compound concentration 100 nM; Entrez PIK3CA; read-out: Percent Control
Chain of PIK3CA(E545A) (P42336 whole entry E545A): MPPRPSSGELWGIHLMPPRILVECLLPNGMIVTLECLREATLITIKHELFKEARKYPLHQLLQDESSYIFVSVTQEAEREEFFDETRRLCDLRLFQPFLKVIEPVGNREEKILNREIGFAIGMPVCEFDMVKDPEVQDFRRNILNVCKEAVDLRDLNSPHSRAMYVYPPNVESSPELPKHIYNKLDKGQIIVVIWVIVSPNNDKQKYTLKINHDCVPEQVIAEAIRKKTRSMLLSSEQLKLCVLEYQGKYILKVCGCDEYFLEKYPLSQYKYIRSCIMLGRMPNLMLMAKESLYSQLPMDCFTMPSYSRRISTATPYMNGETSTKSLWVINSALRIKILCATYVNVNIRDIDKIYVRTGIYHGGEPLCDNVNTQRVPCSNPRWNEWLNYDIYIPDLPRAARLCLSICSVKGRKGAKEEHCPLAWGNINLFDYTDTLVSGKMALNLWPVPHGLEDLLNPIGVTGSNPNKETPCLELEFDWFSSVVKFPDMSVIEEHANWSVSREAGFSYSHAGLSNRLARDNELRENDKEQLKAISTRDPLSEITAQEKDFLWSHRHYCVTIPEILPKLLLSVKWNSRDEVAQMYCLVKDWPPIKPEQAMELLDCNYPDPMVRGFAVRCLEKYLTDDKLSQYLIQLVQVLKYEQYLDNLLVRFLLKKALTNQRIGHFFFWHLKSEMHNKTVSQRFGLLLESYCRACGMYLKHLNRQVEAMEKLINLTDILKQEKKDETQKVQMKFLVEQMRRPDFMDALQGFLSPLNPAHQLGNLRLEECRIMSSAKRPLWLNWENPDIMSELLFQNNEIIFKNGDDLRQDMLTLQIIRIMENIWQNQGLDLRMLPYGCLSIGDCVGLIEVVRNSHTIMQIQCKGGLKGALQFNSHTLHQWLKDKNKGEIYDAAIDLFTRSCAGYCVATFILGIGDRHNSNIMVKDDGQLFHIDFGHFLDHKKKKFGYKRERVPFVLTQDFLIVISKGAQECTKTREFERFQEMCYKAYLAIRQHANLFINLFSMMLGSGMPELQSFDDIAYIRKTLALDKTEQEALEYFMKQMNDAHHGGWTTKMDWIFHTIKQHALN

LIMK2 = LIMK2 (Homo sapiens, UniProt P53671); test: Differential scanning fluorimetry assay for LIMK1/2; settings: LIMK2, 10 μM compound
Method: The assay was performed according to a previously established protocol. […] The compounds to be tested were added to a final concentration of 10 μM. […] Data were analyzed with MxPro software.

SMILES: CN1C(=O)[C@@H](N2CCc3c(nn(Cc4ccccc4)c3C(N)=O)C2=O)COc2cc(Cl)ccc21 [Compound 10, (S)-2-benzyl-6-(8-chloro-5-methyl-4-oxo-2,3,4,5-tetrahydrobenzo[b][1,4]oxazepin-3-yl)-7-oxo-4,5,6,7-tetrahydro-2H-pyrazolo[3,4-c]pyridine-3-carboxamide]
- ΔTm at 10 µM (AAK1A): 0.1 °C
- ΔTm at 10 µM (CAMK4A): 0.1 °C
- ΔTm at 10 µM (CDK2A): 0 °C
- ΔTm at 10 µM (DMPKA): 0.1 °C
- ΔTm at 10 µM (DYRK1AA): 0 °C
- ΔTm at 10 µM (EPHA2A): 0 °C
- ΔTm at 10 µM (EPHA4A): 0.2 °C
- ΔTm at 10 µM (EPHB3A): 0.2 °C
- ΔTm at 10 µM (FECH): -0.6 °C
- ΔTm at 10 µM (MAP3K5A): 0 °C
- ΔTm at 10 µM (MST3A): -0.3 °C
- ΔTm at 10 µM (MST4A): -0.1 °C
- ΔTm at 10 µM (NEK7A): 0 °C
- ΔTm at 10 µM (NQO2A): 0.6 °C
- ΔTm at 10 µM (PCTK1A): 0.2 °C
- ΔTm at 10 µM (PHKG2A): 0 °C
- ΔTm at 10 µM (RIOK1A): 0.5 °C
- ΔTM (RPS6KA5A): -0.1 K
- ΔTm at 10 µM (STK17BA): 0.1 °C
- ΔTm at 10 µM (STK39A): 0.1 °C
- ΔTm at 10 µM (VRK1A): -0.2 °C
- ΔTm at 10 µM (BRPF1A): -0.8 °C
- remaining activity at 1 µM [1]: 69%
- remaining activity at 1 µM [2]: 85%
- remaining activity at 1 µM (EGFR(E746-A750del)): 86%
- remaining activity at 1 µM (FLT3(D835Y)): 94%
- remaining activity at 1 µM (RET(M918T)): 96%
- Percent Control (EGFR(L747-T751del,Sins)): 97%
- Percent Control (FLT3(ITD,F691L)): 100%
- remaining activity at 0.1 µM (BRAF(V600E)): 100%
- remaining activity at 0.1 µM (EGFR(L858R,T790M)): 100%
- remaining activity at 0.1 µM (FGFR3(G697C)): 92%
- remaining activity at 0.1 µM (KIT(V559D,T670I)): 92%
- remaining activity at 0.1 µM (PIK3CA(E545A)): 92%

SMILES: CN1C(=O)[C@@H](N2CCc3c(C(N)=O)nn(Cc4ccccc4)c3C2=O)COc2ccccc21 [Compound 11]
- ΔTM (stabilization in the DSF assay) (LIMK2): inactive

Reference: paper PMC12090182, “Repurposing of the RIPK1-Selective Benzo[1,4]oxazepin-4-one Scaffold for the Development of a Type III LIMK1/2 Inhibitor” (ACS Chemical Biology, 2025)
